Values joined by “and” are separate entries in the source; they are usually repeats but may differ in a detail not shown here. Equal values may be shown once.
Key:
memory B-cells = test: Liposome binding to peripheral blood memory B-cells by flow cytometry; format: cell-based, human
Method: 200,000 cells/well were plated into a 96-well U-bottom microplate and centrifuged at 300 × g for 5 min. The cells were then resuspended in 50 µL of 50 µM liposome/50 µg/mL (protein concentration) of EV solution in DMEM F12 5% FBS and incubated at 37 °C for 30 min. Excess liposomes were then removed via centrifuged at 300 × g for 5 min followed by washing the cells with FACS solution. The cells were then resuspended in (1:250 V/V) anti-Siglec-flow buffer (1% V/V FBS, 500 µM, EDTA Hank’s Balanced Salt Solution pH 7.4), solution and left to rest on ice for 30 min. The cells were then centrifuged again at 300 × g for 5 min and the cells were resuspended in FACS buffer solution and were then ready for analysis by flow cytometry. Information regarding antibody clone, catalog number supplier, label isotype, and dilution can be found in Supplementary Table 6. The Siglec-positive cells were gated on for liposome-binding analysis (Supplementary Fig. 1b).
Flow cytometry measurements were collected on a 5-laser Fortessa X-20 (BD Bioscience). All the resulting data were analyzed using FlowJo (10.5.3) software (BD Biosciences).

[1] = test system: syncytiotrophoblasts of placental explants; test: Liposome uptake assay in the placenta explants (confocal microscopy); format: cell-based, human; conditions: for liposome binding/uptake, fluorescence signal (replicates): cells not given
[2] = target: T1, CHO cells expressing Siglec-1 (Homo sapiens, UniProt Q9BZZ2); test: Liquid glycan array (LiGA) binding read out by next-generation sequencing; format: cell-based; conditions: for LiGA signal at 0.034: Figure S9, 0.034; for LiGA signal at 0.041: Figure S9, 0.041; for LiGA signal at 0.048: Figure S9, first column 0.048; for LiGA: ganglioside oligosaccharide on phage binding to Siglec-1 CHO cells (Fig. 1e): replicates; for density at which LiGA binding to Siglec-1 CHO cells was maximal: oligosaccharide on phage; for LiGA signal at 0.019: Figure S9, 0.019; for LiGA signal at 0.06: Figure S9, 0.06
T1 construct: expressed in transfected cells
T1 sequence (Q9BZZ2 20-1709): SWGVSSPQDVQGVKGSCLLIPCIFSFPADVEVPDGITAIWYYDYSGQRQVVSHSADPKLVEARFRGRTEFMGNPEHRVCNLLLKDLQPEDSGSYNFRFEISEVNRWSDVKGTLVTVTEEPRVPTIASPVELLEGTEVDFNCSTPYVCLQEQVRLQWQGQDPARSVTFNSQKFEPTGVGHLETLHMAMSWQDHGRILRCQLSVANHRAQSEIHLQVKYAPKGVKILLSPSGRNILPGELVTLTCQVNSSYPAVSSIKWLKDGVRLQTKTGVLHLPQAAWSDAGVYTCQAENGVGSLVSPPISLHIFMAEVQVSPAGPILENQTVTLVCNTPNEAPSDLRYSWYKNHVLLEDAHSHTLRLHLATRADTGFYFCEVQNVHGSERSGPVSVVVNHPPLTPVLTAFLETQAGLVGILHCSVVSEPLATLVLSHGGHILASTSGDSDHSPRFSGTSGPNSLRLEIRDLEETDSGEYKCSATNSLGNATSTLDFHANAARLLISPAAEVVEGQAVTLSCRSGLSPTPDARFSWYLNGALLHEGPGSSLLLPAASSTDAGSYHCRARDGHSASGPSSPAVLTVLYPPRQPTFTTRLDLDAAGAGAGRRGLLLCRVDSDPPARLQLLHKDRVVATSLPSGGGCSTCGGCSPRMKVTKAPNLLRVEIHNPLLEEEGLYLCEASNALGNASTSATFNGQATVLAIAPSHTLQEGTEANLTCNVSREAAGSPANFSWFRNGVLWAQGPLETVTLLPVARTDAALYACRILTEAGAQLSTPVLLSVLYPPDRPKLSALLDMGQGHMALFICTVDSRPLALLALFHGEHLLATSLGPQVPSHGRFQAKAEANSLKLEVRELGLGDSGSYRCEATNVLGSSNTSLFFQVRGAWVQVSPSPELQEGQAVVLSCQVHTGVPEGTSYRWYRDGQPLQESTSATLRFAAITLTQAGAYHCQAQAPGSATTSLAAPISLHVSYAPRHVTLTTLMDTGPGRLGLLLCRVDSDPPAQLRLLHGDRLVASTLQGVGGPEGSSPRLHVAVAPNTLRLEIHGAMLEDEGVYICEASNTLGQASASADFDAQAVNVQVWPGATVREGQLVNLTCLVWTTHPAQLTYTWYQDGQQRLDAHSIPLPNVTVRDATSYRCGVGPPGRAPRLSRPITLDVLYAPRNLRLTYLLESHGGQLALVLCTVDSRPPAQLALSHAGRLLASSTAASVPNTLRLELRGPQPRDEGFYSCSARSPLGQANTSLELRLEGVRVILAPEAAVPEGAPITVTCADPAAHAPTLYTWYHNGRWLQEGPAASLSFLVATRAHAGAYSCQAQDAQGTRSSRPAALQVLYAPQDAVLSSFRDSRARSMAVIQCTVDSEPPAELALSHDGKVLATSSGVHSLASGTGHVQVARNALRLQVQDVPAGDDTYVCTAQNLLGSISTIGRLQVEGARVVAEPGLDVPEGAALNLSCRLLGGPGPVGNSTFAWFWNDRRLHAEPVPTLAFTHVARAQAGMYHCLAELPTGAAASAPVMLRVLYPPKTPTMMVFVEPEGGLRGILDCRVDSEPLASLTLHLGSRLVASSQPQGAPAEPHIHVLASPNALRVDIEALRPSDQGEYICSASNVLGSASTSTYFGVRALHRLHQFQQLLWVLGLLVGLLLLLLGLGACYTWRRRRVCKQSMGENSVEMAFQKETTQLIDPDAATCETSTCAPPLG
Method: (§1) Solution of five SDB phage clones (10^12−10^13 PFU/mL in PBS) was combined in equal amounts (50 µL) to create a multiplexed silent barcode (MSDB). Twenty-four such MSDB were created and combined DBCO-NHS (50 mM in DMF) to afford a final concentration ranging from 0.25 to 2 mM. The reaction was incubated for 45 min at room temperature. The conjugates were purified by Zeba™ Spin Desalting column (7 kDa MWCO, 0.5 mL, Thermo Fisher) and pVIII modification rate was confirmed by MAL/DI using a previously reported protocol. Typically, 1 mM DBCO-NHS yields 25% of pVIII modification after 45 min incubation. Six MSDB were combined and a solution of azido-glycans (10 mM stock in Nuclease Free H2O) was added to the solution to afford a 2 mM concentration of glycan-azide and the solutions were further incubated overnight at 4 °C. The glycan conjugation was confirmed using MALDI-TOF. The conjugates were purified by Zeba column and supplemented with glycerol and stored as 50% glycerol stock at −20 °C. LiGA mixture was prepared by combining these solutions.
as §1, with “The solution of five” for “Solution of five”, “Fisher) and the pVIII modification” for “Fisher) and pVIII modification”
Confluent CHO cells expressing Siglec-1 or UT CHO cells were detached using PBS plus 5 mM EDTA and washed with PBS (2 × 5 mL). Suspension of at 2 × 10^6 cells in HEPES-1, % BSA (20 mM HEPES, 150 mM NaCl, 2 mM CaCl2, pH 7.4, 1% BSA) in a round bottom 3 mL tube (Corning, #352054) was combined with LiGA (10^8 PFU) and incubated for 1 h at 4 °C. The cells were then washed with HEPES-0.1% BSA in (2 × 3 mL) and HEPES buffer (1 × 1 mL). The washed cell pellet was resuspended in 30 µL nuclease-free H2O. The solution was incubated at 90 °C for 15 min, centrifuged at 21,000 × g for 10 min, and 25 µL of the supernatant was used for PCR and sequencing.

[3] = Ganglioside content quantification in liposomes by ESI-MS; format: physicochemical; conditions: peer review file; Supplementary Table 1
Method: The average ganglioside content in a given liposome sample was measured by electrospray ionization mass spectrometry (ESI-MS) using an internal standard (IS)[70]. Briefly, the liposome sample was first disassembled in a methanol solution of 0.15% formic acid, and a known amount of IS was added. The solution was then analyzed by ESI-MS. The total ion abundance (Ab) ratio of the ganglioside (GSL) to the IS measured by ESI-MS is related to the corresponding solution concentration ratio by Eq. (1):1 R=AbGSL/AbIS=GSL/IS and thus the ganglioside concentration can be obtained from linear regression. The corrected ganglioside percentage (GSL%corr) and the ganglioside incorporation in the liposome can be found from Eqs. (2) and (3), respectively, where [GSL]nominal is the nominal concentration of the ganglioside used for liposome preparation:2 GSL%corr=[GSL]/[TotalLipid] 3 Incorporation=[GSL]/GSLnominal
The corresponding deuterium labeled gangliosides, N-ω-CD3-octadecanoyl monosialoganglioside GM2 (GM2-d3), and N-ω-CD3-octadecanoyl monosialoganglioside GM3 (GM3-d3), purchased form Matreya LLC (State College, PA), were used as IS for GM2 and GM3 content quantification, respectively. All these measurements were carried out in negative ion mode using a Q Exactive Hybrid Quadrupole-Orbitrap mass spectrometer coupled with the Nanospray Flex Ion Source (Thermo Fisher Scientific, Bremen, Germany). […]

[4] = oligosaccharide density 0.008 Ligand/nm2
[5] = oligosaccharide density 0.019 Ligand/nm2
[6] = oligosaccharide density 0.034 Ligand/nm2
[7] = oligosaccharide density 0.041 Ligand/nm2
[8] = oligosaccharide density 0.048 Ligand/nm2
[9] = oligosaccharide density 0.06 Ligand/nm2

| Molecule | LiGA signal at 0.034 [2] | LiGA signal at 0.041 [2] | LiGA signal at 0.048 [2] | LiGA: ganglioside oligosaccharide on phage binding to Siglec-1 CHO cells (Fig. 1e) [2, 4] | LiGA: ganglioside oligosaccharide on phage binding to Siglec-1 CHO cells (Fig. 1e) [2, 5] | LiGA: ganglioside oligosaccharide on phage binding to Siglec-1 CHO cells (Fig. 1e) [2, 6] | LiGA: ganglioside oligosaccharide on phage binding to Siglec-1 CHO cells (Fig. 1e) [2, 7] | LiGA: ganglioside oligosaccharide on phage binding to Siglec-1 CHO cells (Fig. 1e) [2, 8] | density at which LiGA binding to Siglec-1 CHO cells was maximal [2] | LiGA signal at 0.019 [2] | LiGA signal at 0.06 [2] | LiGA: ganglioside oligosaccharide on phage binding to Siglec-1 CHO cells (Fig. 1e) [2, 9] | incorporation of ganglioside into liposomes [3] | also measured |
| --- | --- | --- | --- | --- | --- | --- | --- | --- | --- | --- | --- | --- | --- | --- |
| CCCCCCCCCCCCCCCCOCC(COCCCCCCCCCCCCCCCC)OCc1cn(CCO[C@@H]2O[C@H](CO)[C@@H](O[C@@H]3O[C@H](CO)[C@H](O)[C@H](O[C@]4(C(=O)O)C[C@H](O)[C@@H](NC(C)=O)[C@H]([C@H](O)[C@H](O)CO)O4)[C@H]3O)[C@H](O)[C@H]2O)nn1 [GM3-DAG] |  |  |  |  |  |  |  |  |  |  |  |  |  | liposome binding, fluorescence signal (replicates) (memory B-cells; sheet Figure S29, 5% GM3-DAG liposomes, cells not given): 361 and 385 and 363 and 344; liposome binding/uptake, fluorescence signal (replicates) ([1]; sheet Figure S31, 5% GM3-DAG liposomes + mAb): 5737 and 5556 and 5976; liposome binding/uptake, fluorescence signal (replicates) ([1]; sheet Figure S31, 5% GM3-DAG liposomes, no mAb): 20862 and 18720 and 19576 |
| CCCCCCCCCCCCCCCCOCC(COCCCCCCCCCCCCCCCC)OCc1cn(CCO[C@@H]2O[C@H](CO)[C@@H](O[C@@H]3O[C@H](CO)[C@H](O)[C@H](O[C@]4(C(=O)O)C[C@H](O)[C@@H](NC(C)=O)[C@H]([C@H](O)[C@H](O)CO)O4)[C@H]3O)[C@H](O)[C@H]2O)nn1 [nGL 5] |  |  |  |  |  |  |  |  |  |  |  |  |  | 5 nGLL binding to memory B-cells after pre-treatment with anti-Siglec-6 antibody (memory B-cells): Blocking of 5 nGLLs to human memory B-cells was achieved; 5 nGLL binding to memory B-cells compared to naïve B-cells (memory B-cells; four healthy donors): significant binding; puncta of 5 nGLLs on syncytiotrophoblasts compared to naked liposomes ([1]; live human placental explants, 50 μM liposome, 2 h): significantly more puncta; 5 nGLL interaction with syncytiotrophoblasts after pre-treatment with anti-Siglec-6 antibody ([1]; placental explants): blocked these interactions; colocalization of 5 nGLLs with Siglec-6 compared to naked liposomes ([1]; placental explants): strong colocalization |
| GD1a | 3.442 and 2.502 and 3.222 and 3.062 and 2.777 | 1.814 and 2.04 and 1.9 and 2.274 and 1.639 | 1.684 and 1.501 and 1.621 and 1.606 | 0.05 (4×) and 0.04 | 0.2 and 0.13 and 0.03 and 0.15 | 0.41 and 0.39 and 0.36 and 0.44 and 0.32 | 0.24 and 0.29 and 0.21 and 0.23 and 0.26 | 0.19 and 0.21 (2×) and 0.22 and 0 | ~ 26 nm^2/ligand |  |  |  |  | LiGA signal at 0.066 ([2]; Figure S9, first column 0.066): 2.309 and 1.395 and 2.352 and 2.266; LiGA: ganglioside oligosaccharide on phage binding to Siglec-1 CHO cells (Fig. 1e) ([2]; oligosaccharide density 0.066 Ligand/nm2): 0.18 and 0.3 (2×) and 0.29 |
| GM1 | 0.857 and 0.909 and 0.746 and 0.756 and 0.912 |  | 0.51 and 0.478 and 0.553 and 0.673 | 0.12 and 0.09 (2×) and 0.04 | 0.08 (2×) and 0.1 (2×) | 0.11 and 0.12 (2×) and 0.1 (2×) | 0.07 (3×) and 0.08 | 0.07 (2×) and 0.06 and 0.09 |  | 0.643 and 0.783 and 0.76 and 0.6 | 1.503 and 0.848 and 1.103 and 0.902 and 1.094 | 0.19 and 0.11 and 0.14 (2×) and 0.12 |  |  |
| GM2 |  |  | 6.111 and 6.403 and 6.572 and 7.724 and 12.213 | 0.1 (2×) and 0.05 and 0.07 | 0.12 (3×) and 0.13 and 0.23 | 0.71 and 1.24 and 1.08 and 1.35 and 0.62 |  | 0.82 and 0.84 and 0.99 and 0.78 | ~ 26 nm^2/ligand | 0.917 and 0.919 and 0.922 and 1.035 and 1.785 | 5.095 and 7.961 and 4.56 and 5.475 | 1.02 and 0.58 and 0.7 and 0.65 | 98% |  |
| GM3 | 0.358 and 0.619 and 0.601 and 0.534 | 0.827 and 1.082 and 1.01 and 1.1 and 0.616 | 0.881 and 0.783 and 0.773 and 1.152 | 0.19 and 0.09 and 0.07 and 0.1 and 0.08 | 0.12 and 0.11 and 0.1 and 0.19 and 0.05 | 0.05 and 0.08 (2×) and 0.07 | 0.11 and 0.14 (2×) and 0.13 and 0.08 | 0.11 and 0.1 (2×) and 0.15 |  |  |  | 0.13 and 0.15 and 0.07 and 0.06 | 96% |  |
